Measured values reported in patent US11925629B2, “Heterocyclic inhibitors of ERK1 and ERK2 and their use in the treatment of cancer” (Asana Biosciences, LLC, priority 2015, dated 2024).
pIC50: −log10 of the molar value. Counter-ions that a name gives are not always drawn.

Tests used:
ERK1 = target: T1, ERK1 (Homo sapiens, UniProt P27361); assay: ERK1 HTRF (biochemical) assay; settings: HTRF biochemical assay
T1 construct: purchased Jubilant Biosys
Description: (§1) ERK1 and ERK2 HTRF (Biochemical) Assays
These assays employed a homogeneous time resolved fluorescence (HTRF) technique. […] The plate was incubated at room temperature for 60 min with shaking. […] The IC50 values (half maximal inhibitory concentration values) were subsequently determined using a sigmoidal dose-response curve (variable slope) in GraphPad Prism® 5 software.

ERK2 = target: T2, ERK2 (Homo sapiens, UniProt P28482); assay: ERK2 HTRF (biochemical) assay; settings: HTRF biochemical assay
T2 construct: purchased Jubilant Biosys
Description: as §1
These assays employed a homogeneous time resolved fluorescence (HTRF) technique. The compounds were serially diluted by half-log with concentrations ranging from 0.0005 to 10 uM in the assay buffer (50 mM Tris pH=7.5, 1 mM EGTA, 2 mM DTT, 10 mM MgCl2, 0.100 Tween-20) and 20 uL of substrate-ATP mix [1 uM Biotin-LC-Myelin Basic Protein (MBP) derivatized Peptide (Anaspec)-24 uM ATP (Sigma)] was added to each well of the assay plate. Then 10 uL of enzyme mix [25 nM ERK1 or ERK2 (Jubilant Biosys) in assay buffer] was added to each well. The plate was incubated at room temperature for 60 min with shaking. The HTRF mix [625 nM LANCER Ultra Europium-anti-phospho-MBP (Perkin Elmer) and 2 nM Phycolink® Streptavidin-Allophycocyanin (SA-APC) (Prozyme) in HTRF buffer (50 mM Tris-HCl pH=7.5, 100 mM NaCl, 0.1% BSA, 0.05% Tween20, 0.5 mM EDTA)] was prepared and 75 uL of this mix was added to the HTRF plate. After incubation for 60 min at room temperature, 10 uL of the reaction mixture was transferred to the HTRF assay plate and incubated for 45 min at room temperature with shaking. Plate was read using Pherastar in HTRF mode (excitation 337 nm, emission 665 & 620 nm). The IC50 values (half maximal inhibitory concentration values) were subsequently determined using a sigmoidal dose-response curve (variable slope) in GraphPad Prism® 5 software.

[1] = tested on: HT-29 (colorectal carcinoma, B-RafV600E) cells; assay: Cell proliferation (Alamar Blue) assay, HT-29; assay type: cell-based, human; settings: Homo sapiens, HT-29, HT29 cells
Outline: (§2)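 IC50 values derive from variable-slope sigmoidal fits of Alamar Blue fluorescence (540 nm excitation, 590 nm emission, 1-3 h dye incubation). Compound treatment ran 72 h at 37° C./5% CO2 over roughly 0.0005-10 uM in 3-fold steps, on cells plated at 5000/well and pre-incubated 16-24 h.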

[2] = tested on: HCT116 (colorectal carcinoma, K Ras G13D) cells; assay: Cell proliferation (Alamar Blue) assay, HCT116; assay type: cell-based, human; settings: Homo sapiens, HCT-116, HCT116 cells
Outline: as §2

[3] = tested on: phosphorylation of RSK1(S380) (the downstream target of ERK1/2); assay: Phospho-RSK1(S380) ELISA assay in HT-29 cells; assay type: cell-based, human; settings: Homo sapiens, HT-29, HT29 cells; read-out: Mechanistic Cell Assay RSK1 Phos HT29 IC50
Outline: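 HT-29 colorectal carcinoma cells (B-RafV600E), plated overnight at 37° C./5% CO2, were treated with compound dilutions for 2 h. Lysates were analysed by phospho-RSK1(Ser380) sandwich ELISA with absorbance at 450 nm. IC50 came from a sigmoidal variable-slope dose-response fit.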

T2 sequence (P28482 whole entry): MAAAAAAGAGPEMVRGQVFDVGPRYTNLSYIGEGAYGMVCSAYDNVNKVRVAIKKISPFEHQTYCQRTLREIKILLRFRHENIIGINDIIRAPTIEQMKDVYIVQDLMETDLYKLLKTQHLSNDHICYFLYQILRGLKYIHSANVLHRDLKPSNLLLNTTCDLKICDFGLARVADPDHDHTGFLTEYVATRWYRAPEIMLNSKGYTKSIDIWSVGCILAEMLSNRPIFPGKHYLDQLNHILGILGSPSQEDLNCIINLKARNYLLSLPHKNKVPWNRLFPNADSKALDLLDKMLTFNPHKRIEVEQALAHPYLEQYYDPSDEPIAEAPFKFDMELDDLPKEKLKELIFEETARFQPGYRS
T1 sequence (P27361 whole entry): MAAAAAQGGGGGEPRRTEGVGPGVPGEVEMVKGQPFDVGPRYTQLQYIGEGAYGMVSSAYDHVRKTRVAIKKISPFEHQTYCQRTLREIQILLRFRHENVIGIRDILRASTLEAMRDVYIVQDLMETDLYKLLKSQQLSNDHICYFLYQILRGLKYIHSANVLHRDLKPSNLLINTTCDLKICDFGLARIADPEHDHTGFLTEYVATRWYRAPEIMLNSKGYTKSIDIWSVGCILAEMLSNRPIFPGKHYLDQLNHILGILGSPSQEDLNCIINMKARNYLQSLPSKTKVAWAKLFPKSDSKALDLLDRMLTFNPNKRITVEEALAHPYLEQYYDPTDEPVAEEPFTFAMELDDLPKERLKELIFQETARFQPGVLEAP

SMILES	pIC50 [1]	pIC50 [2]	pIC50 [3]	pIC50 (ERK1)	pIC50 (ERK2)
Cc1cnc(NC2CCOCC2)nc1-n1cnc(C(=O)N[C@H](CN)c2cccc(Cl)c2)c1 [Compound #298, (S)—N-(2-Amino-1-(3-chlorophenyl)ethyl)-1-(5-methyl-2-((tetrahydro-2H-pyran-4-yl)amino)pyrimidin-4-yl)-1H-imidazole-4-carboxamide hydrochloride salt]				> 7.30	≥ 7.30
Cc1cnc(NC2CCOCC2)nc1-n1cnc(C(=O)NCc2nc(Cl)sc2C)c1 [Example 328, N-((2-chloro-5-methylthiazol-4-yl)methyl)-1-(5-methyl-2-((tetrahydro-2H-pyran-4-yl)amino)pyrimidin-4-yl)-1H-imidazole-4-carboxamide]	6.30 to 6.60	< 5.60	6.30 to 6.60		
Cc1cnc(Nc2ccc(F)cc2Cl)nc1-n1cnc(C(=O)NCc2cccc(Cl)c2CO)c1 [Example 329, N-(3-chloro-2-(hydroxymethyl)benzyl)-1-(2-((2-chloro-4-fluorophenyl)amino)-5-methylpyrimidin-4-yl)-1H-imidazole-4-carboxamide]	≥ 7.00	6.30 to 6.60	≥ 7.00		
Cc1cnc(N[C@H]2CCOC2)nc1-n1cnc(C(=O)NCc2cccc(Cl)c2C)c1 [Example 331, (S)-N-(3-chloro-2-methylbenzyl)-1-(5-methyl-2-((tetrahydrofuran-3-yl)amino)pyrimidin-4-yl)-1H-imidazole-4-carboxamide]	5.60 to 6.30	5.60 to 6.30	≥ 7.00		
Cc1cnc(Nc2ccc3c(c2)OC(F)(F)O3)nc1-n1cnc(C(=O)NCc2cccc(Cl)c2CO)c1 [Example 332, N-(3-chloro-2-(hydroxymethyl)benzyl)-1-(2-((2,2-difluorobenzo[d][1,3]dioxol-5-yl)amino)-5-methylpyrimidin-4-yl)-1H-imidazole-4-carboxamide]	5.60 to 6.30	6.30 to 6.60	≥ 7.00		
CC[C@H](CO)Nc1ncc(C)c(-n2cnc(C(=O)NCc3cccc(Cl)c3CO)c2)n1 [Example 336, (R)-N-(3-chloro-2-(hydroxymethyl)benzyl)-1-(2-((1-hydroxybutan-2-yl)amino)-5-methylpyrimidin-4-yl)-1H-imidazole-4-carboxamide]	≥ 7.00	6.60 to 7.00	≥ 7.00		
Cc1cnc(N[C@H]2CCOC2)nc1-n1cnc(C(=O)NCc2cccc(CO)c2Cl)c1 [Example 338, (S)-N-(2-chloro-3-(hydroxymethyl)benzyl)-1-(5-methyl-2-((tetrahydrofuran-3-yl)amino)pyrimidin-4-yl)-1H-imidazole-4-carboxamide]	< 5.60	5.60 to 6.30	5.60 to 6.30		
CC(=O)OCc1c(Cl)cccc1CNC(=O)c1cn(-c2nc(NC3CCOCC3)ncc2C)cn1 [Example 340, 2-chloro-6-((1-(5-methyl-2-((tetrahydro-2H-pyran-4-yl)amino)pyrimidin-4-yl)-1H-imidazole-4-carboxamido)methyl)benzyl acetate]	≥ 7.00	≥ 7.00	≥ 7.00		
CC(=O)OCc1c(Cl)cccc1CNC(=O)c1cn(-c2nc(N[C@H]3CCOC3)ncc2C)cn1 [Example 342, (S)-2-chloro-6-((1-(5-methyl-2-((tetrahydrofuran-3-yl)amino)pyrimidin-4-yl)-1H-imidazole-4-carboxamido)-methyl)benzyl acetate]	≥ 7.00	≥ 7.00	6.60 to 7.00		

The next lines start with results.

pIC50 [1]	pIC50 [2]	pIC50 [3]	SMILES	pIC50 (ERK1)	pIC50 (ERK2)
5.60 to 6.30	< 5.60	5.60 to 6.30	Cc1cnc(N[C@H]2CCOC2)nc1-n1cnc(C(=O)NCc2cccc(Cl)c2)c1 [Example 318, (S)-N-(3-chlorobenzyl)-1-(5-methyl-2-((tetrahydrofuran-3-yl)amino)pyrimidin-4-yl)-1H-imidazole-4-carboxamide]		
6.30 to 6.60	5.60 to 6.30	6.30 to 6.60	Cc1cnc(NC2CCOCC2)nc1-n1cnc(C(=O)N[C@H](CN(C)C)c2cccc(Cl)c2)c1 [Example 320, (S)-N-(1-(3-chlorophenyl)-2-(dimethylamino)ethyl)-1-(5-methyl-2-((tetrahydro-2H-pyran-4-yl)amino)pyrimidin-4-yl)-1H-imidazole-4-carboxamide]		
≥ 7.00	≥ 7.00	≥ 7.00	CNC[C@@H](NC(=O)c1cn(-c2nc(NC3CCOCC3)ncc2C)cn1)c1cccc(Cl)c1 [Example 326, (S)-N-(1-(3-chlorophenyl)-2-(methylamino)ethyl)-1-(5-methyl-2-((tetrahydro-2H-pyran-4-yl)amino)pyrimidin-4-yl)-1H-imidazole-4-carboxamide]		
5.60 to 6.30	< 5.60	6.30 to 6.60	Cc1cnc(NC2CCOCC2)nc1-n1cnc(C(=O)NCc2ccc(Cl)c(CO)c2)c1 [Example 330, N-(4-chloro-3-(hydroxymethyl)benzyl)-1-(5-methyl-2-((tetrahydro-2H-pyran-4-yl)amino)pyrimidin-4-yl)-1H-imidazole-4-carboxamide]		
≥ 7.00	≥ 7.00	≥ 7.00	Cc1cnc(NC2CCOCC2)nc1-n1cnc(C(=O)N[C@H](CNCCO)c2cccc(Cl)c2)c1 [Example 333, (S)-N-(1-(3-chlorophenyl)-2-((2-hydroxyethyl)amino)ethyl)-1-(5-methyl-2-((tetrahydro-2H-pyran-4-yl)amino)pyrimidin-4-yl)-1H-imidazole-4-carboxamide]		
≥ 7.00	≥ 7.00	≥ 7.00	Cc1cnc(NC2CCOCC2)nc1-n1cnc(C(=O)NCc2cccc(Cl)c2CCO)c1 [Example 334, N-(3-chloro-2-hydroxyethylbenzyl)-1-(5-methyl-2-((tetrahydro-2H-pyran-4-yl)amino)pyrimidin-4-yl)-1H-imidazole-4-carboxamide]		
6.30 to 6.60	< 5.60	6.60 to 7.00	Cc1cnc(NC2CCOCC2)nc1-n1cnc(C(=O)NCc2cccc(CO)c2Cl)c1 [Example 335, N-(2-chloro-3-(hydroxymethyl)benzyl)-1-(5-methyl-2-((tetrahydro-2H-pyran-4-yl)amino)pyrimidin-4-yl)-1H-imidazole-4-carboxamide]		
6.60 to 7.00	5.60 to 6.30	6.60 to 7.00	Cc1cnc(NC2CCOCC2)nc1-n1cnc(C(=O)N[C@H](CNCC(C)(C)C)c2cccc(Cl)c2)c1 [Example 337, (S)-N-(1-(3-chlorophenyl)-2-(neopentylamino)ethyl)-1-(5-methyl-2-((tetrahydro-2H-pyran-4-yl)amino)pyrimidin-4-yl)-1H-imidazole-4-carboxamide]		
≥ 7.00	≥ 7.00	≥ 7.00	Cc1cnc(NC2CCOCC2)nc1-n1cnc(C(=O)N[C@H](CNCC2CC2)c2cccc(Cl)c2)c1 [Example 339, 1-[5-Methyl-2-(tetrahydro-pyran-4-ylamino)-pyrimidin-4-yl]-1H-imidazole-4-carboxylic acid [(S)-1-(3-chloro-phenyl)-2-(cyclopropylmethyl-amino)-ethyl]-amide]		
5.60 to 6.30	5.60 to 6.30	6.30 to 6.60	Cc1cnc(NC2CCOCC2)nc1-n1cnc(C(=O)NC(C)(C)c2cccc(Cl)c2CO)c1 [Example 341, N-(2-(3-chloro-2-(hydroxymethyl)phenyl)propan-2-yl)-1-(5-methyl-2-((tetrahydro-2H-pyran-4-yl)amino)pyrimidin-4-yl)-1H-imidazole-4-]		
6.30 to 6.60	6.30 to 6.60	6.60 to 7.00	Cc1cnc(NC2CCOCC2)nc1-n1cnc(C(=O)NCc2ccc(Cl)cc2CO)c1 [Example 343, N-(4-chloro-2-hydroxymethylbenzyl)-1-(5-methyl-2-((tetrahydro-2H-pyran-4-yl)amino)-pyrimidin-4-yl)-1H-imidazole-4-carboxamide]		
5.60 to 6.30	5.60 to 6.30	< 5.60	CNCCNC[C@@H](NC(=O)c1cn(-c2nc(NC3CCOCC3)ncc2C)cn1)c1cccc(Cl)c1 [Example 345]		
